The subject of data set [1] is nitric oxide (NO) production, LPS-stimulated RAW264.7 macrophages. Kind of data set: Inhibitory assay of NO production (Griess reagent) in LPS-stimulated RAW264.7 macrophages. Type of data set: cell-based. The settings on record: LPS 100 ng/mL for 24 h, 30 min pretreatment, mean ± SD (n = 3). On the procedure:
NO is a messenger molecule that is widespread in cells and can affect a variety of physiological and pathological processes. The production of NO causes tissue damage and can trigger a variety of inflammatory diseases. LPS induces the release of NO from RAW264.7 cells by detecting the release of NO widely used to investigate the anti-inflammatory effects of the compounds [2, 10, 40]. […]
Inhibitory Assay of NO Production […]
(§1) Compounds 1-23 were dissolved in dimethyl sulfoxide (DMSO) and diluted with complete medium to 6 degrees of concentration […]
were maintained in Dulbecco’s modified Eagle’s medium (high-glucose condition) supplemented with 10% fetal calf serum, 100 U/mL penicillin, and 100 μg/mL streptomycin at 37 °C in 5% CO 2. RAW 264.7 cells were pretreated with each tested compound for 30 min, and then stimulated with lipopolysaccharide (LPS) (100 ng/mL) for 24 h. Aminoguanidine hydrochloride (100 μM) was used as a positive control. The NO production was measured using the Griess reagent. Briefly, the cell culture supernatant was reacted with equal volumes of Griess reagent in a 96-well plate for 10 min, and then the absorbance at 540 nm was measured by a plate reader. All experiments were performed in triplicate. All tested compounds were prepared as stock solutions with a concentration of 10 mM in DMSO. […]
In general terms: The Griess reaction detects nitrite, a stable product of nitric oxide.

Data set [2] concerns RAW264.7 cells. Kind of data set: Cytotoxicity by Cell Counting Kit-8 (CCK-8). The settings on record: CCK-8, tested at 25, 50 and 100 μM. On the procedure: Inhibitory Assay of NO Production
Cytotoxicity was examined using the Cell Counting Kit-8 (CCK-8). RAW264.7 cells were taken from logarithmic growth stage and the cell density reached above 80%. And then, the cells were inoculated on 96-well cell culture plates at […], with 3 ×10^4 cells per well, cultured overnight at 37 °C with 5% CO 2. After 24h, the culture medium in the 96-well plate was discarded, the solution was changed and different concentrations (25 μM, 50 μM and 100 μM) of drugs were added. The absorbance at 450 nm was measured using a microplate reader (Thermo Fisher Scientific). Viability was defined as the ratio (expressed as a percentage) of absorbance values of treated cells to untreated cells.
as §1
were maintained in Dulbecco’s modified Eagle’s medium (high-glucose condition) supplemented with 10% fetal calf serum, 100 U/mL penicillin, and 100 μg/mL streptomycin at 37 °C in 5% CO 2. […]

Setting [3] is: Mus musculus, RAW264.7, RAW 264.7 cell line.

IC50 and Cytotoxicity data for 22 molecules are collected here from article PMC6891263, “Alkaloids with Nitric Oxide Inhibitory Activities from the Roots of Isatis tinctoria” (Molecules, 2019).

Where only a bound is given, the exact number is not on record here.

With “2-(1H-indol-2-yl)-4(3H)-quinolinone [Compound 8]”, the IC50 in data set [1] (RAW 264.7 cell line) was over 100 µM.
With `Cl.N=C(N)NN` [AG, aminoguanidine hydrochloride, reference compound], the IC50 in data set [1] (RAW 264.7 cell line) was 22.7 ± 0.4 µM. In addition, the Cytotoxicity in data set [2] is over 100 µM.
For `O=c1cc(-c2ccc(O)cc2)c2cc(O)ccc2[nH]1` [Compound 1, Isatisindigoticanine E], the IC50 in data set [1] (setting [3]) was over 100 µM. Besides, in data set [2], the Cytotoxicity is over 100 µM.
On the same counts, the results for `COc1cccc2[nH]c(=O)cc(-c3cc4ccccc4[nH]3)c12` [Compound 2, Isatisindigoticanine F] are over 100 µM and over 100 µM.
In the case of `O=c1c2ccccc2nc2n1CCC(c1c[nH]c3ccccc13)=C2` [Compound 3, Isatisindigoticanine G], in data set [1] (setting [3]), the IC50 is over 100 µM. In data set [2], this molecule displayed a Cytotoxicity of over 100 µM.
On the same counts, the results for `O=c1cc(-c2ccc(O)cc2)c2ccccc2[nH]1` [Compound 4, 4-p-hydroxyphenyl-2(1H)-quinolinone] are over 100 µM and over 100 µM.
For the molecule `COc1ccc2nc(-c3cc4ccccc4[nH]3)[nH]c(=O)c2c1` [Compound 5, 2-(1H-indol-2-yl)-6-methoxy-4(3H)-quinazolinone], in data set [1] (setting [3]), the IC50 is over 100 µM. The same molecule returned a Cytotoxicity in data set [2] of over 100 µM.
For `O=c1[nH]c(-c2ccccc2O)nc2ccccc12` [Compound 6, 2-(2-hydroxyphenyl)-4(3H)-quinazolinone], the IC50 in data set [1] (setting [3]) is over 100 µM. In addition, in data set [2], the Cytotoxicity was over 100 µM.
Regarding `C=CCCc1nc2ccccc2c(=O)[nH]1` [Compound 7, 2-(but-3-en-1-yl)-4(3H)-quinazolinone], the IC50 in data set [1] (setting [3]) was over 100 µM. Also, the Cytotoxicity in data set [2] was over 100 µM.
Regarding `O=C(O)CCn1c(=O)[nH]c2ccccc2c1=O` [Compound 10, 3-(2,4-dioxo-1,2-dihydroquinazolin-3(4H)-yl)propanoic acid], the IC50 in data set [1] (setting [3]) was over 100 µM. This molecule yielded a Cytotoxicity in data set [2] of over 100 µM.
On to `O=c1[nH]c2ccccc2c(=O)n1CCCCO` [Compound 11, indiforine C], for which the IC50 in data set [1] (setting [3]) is over 100 µM. This molecule also came in with a Cytotoxicity in data set [2] of over 100 µM.
Taken in the same sequence, the figures for `O=C(O)CCCn1c(=O)[nH]c2ccccc2c1=O` [Compound 12, 4-(2,4-dioxo-1,2-dihydroquinazolin-3(4H)-yl)butanoic acid] were over 100 µM and over 100 µM.
Consider `COC(=O)CCCn1c(=O)[nH]c2ccccc2c1=O` [Compound 13, methyl 4-(2,4-dioxo-1,2-dihydroquinazolin-3(4H)-yl)butanoate], for which, in data set [1] (setting [3]), the IC50 was over 100 µM. In data set [2], the Cytotoxicity is over 100 µM.
Consider `O=c1c2ccccc2ncn1-c1ccccc1O` [Compound 14, 3-(2-hydroxyphenyl)-4(3H)-quinazolinone], for which, in data set [1] (setting [3]), the IC50 was over 100 µM. For the same molecule, in data set [2], the Cytotoxicity was over 100 µM.
Taken in the same sequence, the figures for `O=C(O)c1ccccc1-n1cnc2ccccc2c1=O` [Compound 15, 3-(2-carboxyphenyl)-4(3H)-quinazolinone] were 5 ± 1.3 µM and over 100 µM.
On the same counts, the results for `Cc1nc(O)nc2ccccc12` [Compound 16, 4-methyl-1,2-dihydro-2-oxoquinazoline] are over 100 µM and over 100 µM.
With `Cc1nc2ccccc2c(=O)[nH]1` [Compound 17, 2-methyl-4(3H)-quinazolinone], the Cytotoxicity in data set [2] is over 100 µM.
As to `Cc1c(O)c2ccccc2[nH]c1=O` [Compound 18, 4-hydroxy-3-methyl-2(1H)-quinolinone], the IC50 in data set [1] (setting [3]) is over 100 µM. This molecule also returned a Cytotoxicity in data set [2] of over 100 µM.
With `Nc1cc(C(=O)O)c2ccccc2n1` [Compound 19, 2-amino-4-quinolinecarboxylic acid], the IC50 in data set [1] (setting [3]) is over 100 µM. The same molecule returned a Cytotoxicity in data set [2] of over 100 µM.
In the case of `Oc1ccnc2ccccc12` [Compound 20, 4(1H)-quinolinone], in data set [2], the Cytotoxicity is over 100 µM.
Consider `O=C(O)c1cnc2ccccc2c1O` [Compound 21, 4(1H)-quinolone-3-carboxylic acid], for which the IC50 in data set [1] (setting [3]) is over 100 µM. Also, the Cytotoxicity in data set [2] was over 100 µM.
Taken in the same sequence, the figures for `NC(=O)C(c1[nH]c2ccccc2c1OC1OC(CO)C(O)C(O)C1O)c1c[nH]c2ccccc12` (centres unmarked) [Compound 23, Isatindigoside D] were over 100 µM and over 100 µM.

For orientation: IC50 means the concentration that inhibits the measured activity by half.
